# How the values were obtained:
# [1] = test system: spontaneously hypertensive rats (SHR); assay: Blood pressure lowering and heart rate in conscious spontaneously hypertensive rats, oral; format: in vivo, rat (male Okamoto-Aoki SHR)
# Source text: The blood pressure lowering activity of the compounds of this invention was established in accordance with standard pharmaceutically accepted test procedures in representative compounds as follows:
# Male Okamoto-Aoki spontaneously hypertensive rats (SHR) ranging in weight from 250-400 g were anesthetized with halothane. Their left femoral arteries and veins were cannulated with polyethylene tubing of the appropriate size (i.d. 0.023", o.d. 0.038"). Each animal was placed in a Bollman cage, and the tail, along with two cannulas, was extended through a hole in one end of the cage. The tail was taped securely to a firm rubber board to prevent the rat from turning in its cage to dislodge the cannulas. The femoral arterial cannula was connected to a Statham pressure transducer which in turn was attached to a polygraph for recording arterial pressure and pulse rate. The pulse rate was considered to be the heart rate.
# After the blood pressure has stabilized (usually 2 hours after cessation of the anesthesia), standard agonists were injected by the i.v. route. The doses administered were: isoproterenol 0.5 μg/kg, adrenaline 2.0 μg/kg, tyramine 200 μg/kg and angiotensin-I 0.25 μg/kg. The agonists were given in random order except that tyramine was never preceded by isoproterenol as the response to tyramine seemed to be blunted after a prior injection of isoproterenol. Enough time was allowed for the BP to return to preinjection levels before the test compound was administered by gastric lavage. The time of drug administration was designated as time zero. Heart rate and blood pressure were recorded at 5,10,15,30,45 and 60 minutes and hourly thereafter for a period of 4 hours after drug administration. At 1 and 2 hours post-drug the agonists were again injected at the same concentration and in the same order as during the control period.
# For each dose, the maximum fall in blood pressure was given in mm Hg and also expressed as a percentage decrease compared to pretreatment control values. Linear regression on the maximum decrease in mean arterial blood pressure at each dose was used to calculate the ED30 (the dose which would lower mean arterial pressure by 30%). A decrease in mean arterial blood pressure of 30% reduces the blood pressure from the hypertensive to the normotensive range.
# [2] = test system: isolated rat bladder strips; assay: Inhibition of contractions in isolated rat bladder strips; parameters: species or system rat (Sprague-Dawley); details: for IC50: 0.5 h, additional 15 mM KCl, 30 min challenge
# Source text: In addition, smooth muscle relaxing activity of the compounds of this invention was established in accordance with standard pharmaceutically accepted test procedures in representative compounds as follows:
# Sprague-Dawley rats (150-200 g) are rendered unconscious by CO2 asphyxiation and then euthanized by cervical dislocation. The bladder is removed into warm (37 deg.C.) physiological salt solution (PSS) of the following composition (mM): NaCl, 118.4; KCl, 4.7; CaCl2, 2.5; […]; NaHCO3, 24.9; KH2 PO4, 1.2; glucose, 11.1; EDTA, 0.023; gassed with […]; pH 7.4. The bladder is opened and then cut into strips 1-2 mm in width and 7-10 mm in length. The strips are subsequently suspended in a 10 ml tissue bath under an initial resting tension of 1.5 g. The strips are held in place by two surgical clips one of which is attached to fixed hook while the other is attached to an isometric force transducer. […] The carbachol is then washed out and the tissue allowed to relax to its resting level of activity. Following 1 further 30 min period of recovery an additional 15 mM KCl are introduced into the tissue bath. This increase in KCl concentration results in a large increase in the amplitude of spontaneous contractions (and initiation of contractions in previously quiescent strips) superimposed upon a small increase in basal tone. Following stabilization of this enhanced level of contractile activity, incremental increases in the concentration of test compound or vehicle are introduced into the tissue bath. Contractile activity is measured for each compound or vehicle concentration during the last min of a 30 min challenge.
# Isometric force developed by the bladder strips is measured using a […] to elicit 50% inhibition of pre-drug contractile activity (IC50 concentration) is calculated from this concentration-response curve. The maximum percentage inhibition of contractile activity evoked by a test compound is also recorded for concentrations of test compound<or equal to 30 uM.
structure (smiles),measurement,setting,value
"CC1(C)Oc2ccc(OC(F)(F)F)cc2[C@H](n2[nH]c3ccccc3c2=O)[C@H]1O [Example 7, (+)-2-[(3R,4S)-3-Hydroxy-2,2-dimethyl-6-trifluoromethoxychroman-4-yl]-1,2-dihydro-indazol-3-one]",Max Δ BP (mean arterial blood pressure),"[1]; 0.1 mg/kg p.o., 5 m",-12 mm Hg
same,"Max Δ BP, %","[1]; 0.1 mg/kg p.o., 5 m",-7 ± 1%
same,Max Δ HR (heart rate),"[1]; 0.1 mg/kg p.o., 5 m",+39 beats/min
same,"Max Δ HR, %","[1]; 0.1 mg/kg p.o., 5 m",+10 ± 3%
same,Max Δ BP (mean arterial blood pressure),"[1]; 1.0 mg/kg p.o., 30 m",-96 mm Hg
same,"Max Δ BP, %","[1]; 1.0 mg/kg p.o., 30 m",-51 ± 1%
same,Max Δ HR (heart rate),"[1]; 1.0 mg/kg p.o., 30 m",+114 beats/min
same,"Max Δ HR, %","[1]; 1.0 mg/kg p.o., 30 m",+31 ± 7%
same,Δ BP (mean arterial blood pressure),"[1]; 1.0 mg/kg p.o., 4 h",-20 mm Hg
same,"Δ BP, %","[1]; 1.0 mg/kg p.o., 4 h",-11 ± 2%
same,Δ HR (heart rate),"[1]; 1.0 mg/kg p.o., 4 h",+38 beats/min
same,"Δ HR, %","[1]; 1.0 mg/kg p.o., 4 h",+10 ± 4%
"Cn1c2ccccc2c(=O)n1[C@@H]1c2cc(OC(F)(F)F)ccc2OC(C)(C)[C@H]1O [Example 2, (-)-2-[(3S,4R)-3-Hydroxy-2,2-dimethyl-6-trifluoromethoxy-chroman-4-yl]-1-methyl-1,2-dihydro-indazol-3-one]",IC50,[2],9000 nM
same,inhibition at 10 µM,"[2]; at 10 μM, read-out: Inhibition of Force (%) at (x) μM",58%
same,Max Δ BP (mean arterial blood pressure),"[1]; 1.0 mg/kg p.o., 45 m",-22 mm Hg
same,"Max Δ BP, %","[1]; 1.0 mg/kg p.o., 45 m",-13 ± 2%
same,Max Δ HR (heart rate),"[1]; 1.0 mg/kg p.o., 45 m",+17 beats/min
same,"Max Δ HR, %","[1]; 1.0 mg/kg p.o., 45 m",+4 ± 1%
"Cc1ccc2[nH]n([C@@H]3c4cc(OC(F)(F)F)ccc4OC(C)(C)[C@H]3O)c(=O)c2c1 [Example 8, (-)-2-[(3S,4R)-3-Hydroxy-2,2-dimethyl-6-trifluoromethoxy-chroman-4-yl]-5-methyl-1,2-dihydro-indazol-3-one]",IC50,[2],11 nM
"CC1(C)Oc2ccc(OC(F)(F)F)cc2[C@@H](n2[nH]c3ccccc3c2=O)[C@@H]1O [Example 1, (-)-2-[(3S,4R)-3-Hydroxy-2,2-dimethyl-6-trifluoromethoxy-chroman-4-yl]-1,2-dihydro-indazol-3-one]",IC50,[2],44 nM
same,inhibition at 0.3 µM,"[2]; at 0.3 μM, read-out: Inhibition of Force (%) at (x) μM",100%
same,Max Δ BP (mean arterial blood pressure),"[1]; 0.1 mg/kg p.o., 15 m",-41 mm Hg
same,"Max Δ BP, %","[1]; 0.1 mg/kg p.o., 15 m",-21 ± 3%
same,Max Δ HR (heart rate),"[1]; 0.1 mg/kg p.o., 15 m",+58 beats/min
same,"Max Δ HR, %","[1]; 0.1 mg/kg p.o., 15 m",+16 ± 6%
same,Δ BP (mean arterial blood pressure),"[1]; 0.1 mg/kg p.o., 2 h",-13 mm Hg
same,"Δ BP, %","[1]; 0.1 mg/kg p.o., 2 h",-7 ± 2%
same,Δ HR (heart rate),"[1]; 0.1 mg/kg p.o., 2 h",-29 beats/min
same,"Δ HR, %","[1]; 0.1 mg/kg p.o., 2 h",-7 ± 3%
same,Max Δ BP (mean arterial blood pressure),"[1]; 0.3 mg/kg p.o., 30 m",-102 mm Hg
same,"Max Δ BP, %","[1]; 0.3 mg/kg p.o., 30 m",-55 ± 2%
same,Max Δ HR (heart rate),"[1]; 0.3 mg/kg p.o., 30 m",+90 beats/min
same,"Max Δ HR, %","[1]; 0.3 mg/kg p.o., 30 m",+25 ± 6%
same,Δ BP (mean arterial blood pressure),"[1]; 0.3 mg/kg p.o., 4 h",-22 mm Hg
same,"Δ BP, %","[1]; 0.3 mg/kg p.o., 4 h",-12 ± 4%
same,Δ HR (heart rate),"[1]; 0.3 mg/kg p.o., 4 h",+36 beats/min
same,"Δ HR, %","[1]; 0.3 mg/kg p.o., 4 h",+10 ± 4%
same,Max Δ BP (mean arterial blood pressure),"[1]; 1.0 mg/kg p.o., 45 m",-112 mm Hg
same,"Max Δ BP, %","[1]; 1.0 mg/kg p.o., 45 m",-59 ± 4%
same,Max Δ HR (heart rate),"[1]; 1.0 mg/kg p.o., 45 m",+41 beats/min
same,"Max Δ HR, %","[1]; 1.0 mg/kg p.o., 45 m",+11 ± 12%
same,Δ BP (mean arterial blood pressure),"[1]; 1.0 mg/kg p.o., 4 h",-92 mm Hg
same,"Δ BP, %","[1]; 1.0 mg/kg p.o., 4 h",-47 ± 15%
same,Δ HR (heart rate),"[1]; 1.0 mg/kg p.o., 4 h",-31 beats/min
same,"Δ HR, %","[1]; 1.0 mg/kg p.o., 4 h",-9 ± 13%
